# Measurements from patent US8829007B2 (priority 2009, dated 2014).
# Like-named read-outs stand apart in the source and are kept apart here.
# Test system: influenza A virus (A/PR/8/34)
# Experiment: microbe, parasite or virus in culture
# Type: cell-based
# [1] = Influenza A virus, PR/8, MDCK, read-out: IC50 (mean all)
# [2] = Influenza A virus, PR/8, MDCK, MDCK cells infected with A/PR/8/34, cell protection (CPE), read-out: IC50 (mean all)
# [3] = mean all, A/PR/8/34 infected MDCK cells, CPE assay, read-out: IC50
# [4] = Influenza A virus, PR/8, MDCK, mean all, A/PR/8/34 infected MDCK cells, CPE assay, read-out: IC50
Compound,IC50 [2],IC50 [4],also measured
"Cc1ccc(OC(=O)N2CCC[C@H](CNc3nc(-c4c[nH]c5ncc(Cl)cc45)ncc3F)C2)cc1 [Compound 71, (R)-p-tolyl 3-((2-(5-chloro-1H-pyrrolo[2,3-b]pyridin-3-yl)-5-fluoropyrimidin-4-ylamino)methyl)piperidine-1-carboxylate]",,,IC50 [1]: 5 to 20 µM
"COc1ccccc1C(=O)N1CCCC[C@@H]1CNc1nc(-c2c[nH]c3ncc(Cl)cc23)ncc1F [Compound 190, (R)-(2-((2-(5-chloro-1H-pyrrolo[2,3-b]pyridin-3-yl)-5-fluoropyrimidin-4-ylamino)methyl)piperidin-1-yl)(2-methoxyphenyl)methanone]",5 to 20 µM,,
CC(C)S(=O)(=O)N1CCCC(Nc2ccnc(-c3c[nH]c4ncc(Cl)cc34)n2)C1 (stereo not drawn) [Compound 465],,,IC50 [3]: 5 to 20 µM
"CCCC(=O)N1CCCC[C@H]1CNc1nc(-c2c[nH]c3ncccc23)ncc1F [Compound 258, (S)-1-(2-((5-fluoro-2-(1H-pyrrolo[2,3-b]pyridin-3-yl)pyrimidin-4-ylamino)methyl)piperidin-1-yl)butan-1-one]",5 to 20 µM,,
"CC(C)(C)NC(=O)N1CCC[C@@H](CNc2nc(-c3c[nH]c4ncc(Cl)cc34)ncc2F)C1 [Compound 20, (S)—N-tert-butyl-3-((2-(5-chloro-1H-pyrrolo[2,3-b]pyridin-3-3-yl)-5-fluoropyrimidin-4-ylamino)methyl)piperidine-1-carboxamide]",5 to 20 µM,,
"O=C(c1ccccc1)N1CCCC[C@H]1CNc1nc(-c2c[nH]c3ncccc23)ncc1F [Compound 259, (S)-(2-((5-fluoro-2-(1H-pyrrolo[2,3-b]pyridin-3-yl)pyrimidin-4-ylamino)methyl)piperidin-1-yl)(phenyl)methanone]",5 to 20 µM,,
"CC(C)(C)C(=O)CN1CCC[C@@H](CNc2nc(-c3c[nH]c4ncc(Cl)cc34)ncc2F)C1 [Compound 140, (S)-1-(3-((2-(5-chloro-1H-pyrrolo[2,3-b]pyridin-3-yl)-5-fluoropyrimidin-4-ylamino)methyl)piperidin-1-yl)-3,3-dimethylbutan-2-one]",> 20 µM,,
"O=C(OC1CCOC1)N1CC(Nc2nc(-c3c[nH]c4ncc(Cl)cc34)ncc2F)C1 [Compound 422, (S)-tetrahydrofuran-3-yl 3-((2-(5-chloro-1H-pyrrolo[2,3-b]pyridin-3-yl)-5-fluoropyrimidin-4-ylamino)azetidine-1-carboxylate]",,> 20 µM,
"CC(C)(C)OC(=O)N1CCOCC1CNc1nc(-c2c[nH]c3ncc(Cl)cc23)ncc1F (stereo not drawn) [Compound 515, Tert-Butyl 3-((2-(5-chloro-1H-pyrrolo[2,3-b]pyridin-3-yl)-5-fluoropyrimidin-4-ylamino)methyl)morpholine-4-carboxylate]",,,"IC50 (Influenza A virus, PR/8, MDCK, MDCK cells infected with A/PR/8/34, survival of infected cells, class symbols, read-out: IC50 (mean all)): > 20 µM"
CC(C)NC(=O)N1CCCC[C@@H]1CNc1nc(-c2c[nH]c3ncccc23)ncc1F [Compound 371],,> 20 µM,
"CC(=O)N[C@@H]1CCCC[C@H]1Nc1nc(-c2c[nH]c3ncccc23)ncc1F [Compound 348, N-[(1R,2R)-2-[[5-fluoro-2-(1H-pyrrolo[2,3-b]pyridin-3-yl)pyrimidin-4-yl]amino]cyclohexyl]acetamide]",,> 20 µM,
"CNC(=O)N1CCC[C@@H](CNc2nc(-c3c[nH]c4ncc(Cl)cc34)ncc2F)C1 [Compound 29, (S)-3-((2-(5-chloro-1H-pyrrolo[2,3-b]pyridin-3-yl)-5-fluoropyrimidin-4-ylamino)methyl)-N-methylpiperidine-1-carboxamide]",5 to 20 µM,,
"O=C(O)c1nccnc1C(=O)N1CCC[C@H](CNc2nc(-c3c[nH]c4ncc(Cl)cc34)ncc2F)C1 [Compound 82, (R)-3-(3-((2-(5-chloro-1H-pyrrolo[2,3-b]pyridin-3-yl)-5-fluoropyrimidin-4-ylamino)methyl)piperidine-1-carbonyl)pyrazine-2-carboxylic acid]",> 20 µM,,
"CCCS(=O)(=O)N[C@@H]1CCCC[C@@H]1Nc1nc(-c2c[nH]c3ncc(Cl)cc23)ncc1F (relative stereo) [Compound 338, N-[cis-2-[[2-(5-chloro-1H-pyrrolo[2,3-b]pyridin-3-yl)-5-fluoro-pyrimidin-4-yl]amino]cyclohexyl]propane-1-sulfonamide]",,> 20 µM,
"O=C(Oc1cccc(C(F)(F)F)c1)N1CCC[C@H](CNc2nc(-c3c[nH]c4ncc(Cl)cc34)ncc2F)C1 [Compound 72, (R)-3-(trifluoromethyl)phenyl 3-((2-(5-chloro-1H-pyrrolo[2,3-b]pyridin-3-yl)-5-fluoropyrimidin-4-ylamino)methyl)piperidine-1-carboxylate]",,,IC50 [1]: 5 to 20 µM
"COC(=O)N[C@@H]1CCCC[C@@H]1Nc1nc(-c2c[nH]c3ncc(Cl)cc23)ncc1F (relative stereo) [Compound 432, Methyl N-[cis-2-[[2-(5-chloro-1H-pyrrolo[2,3-b]pyridin-3-yl)-5-fluoro-pyrimidin-4-yl]amino]cyclohexyl]carbamate]",,> 20 µM,
COC(=O)N1CC[C@H](Nc2nc(-c3c[nH]c4ncc(Cl)cc34)ncc2F)C1 [Compound 476],,5 to 20 µM,
CC(=O)N1CCC(Nc2nc(-c3c[nH]c4ncc(Cl)cc34)ncc2F)C1 (stereo not drawn) [Compound 471],,,IC50 [3]: < 5 µM

Compound,IC50 [2],IC50 [4],also measured
"CN(C)CC(=O)N1CCC[C@@H](CNc2nc(-c3c[nH]c4ncc(Cl)cc34)ncc2F)C1 [Compound 46, (S)-1-(3-((2-(5-chloro-1H-pyrrolo[2,3-b]pyridin-3-yl)-5-fluoropyrimidin-4-ylamino)methyl)piperidin-1-yl)-2-(dimethylamino)ethanone]",> 20 µM,,
"CNC(=O)N[C@@H]1CCCC[C@@H]1Nc1nc(-c2c[nH]c3ncc(Cl)cc23)ncc1F (relative stereo) [Compound 430, 1-[cis-2-[[2-(5-chloro-1H-pyrrolo[2,3-b]pyridin-3-yl)-5-fluoro-pyrimidin-4-yl]amino]cyclohexyl]-3-methyl-urea]",,< 5 µM,
"OC1CCCC[C@@H]1CNc1nc(-c2c[nH]c3ncc(Cl)cc23)ncc1F (stereo partly drawn) [Compound 12, (2R)-2-((2-(5-chloro-1H-pyrrolo[2,3-b]pyridin-3-yl)-5-fluoropyrimidin-4-ylamino)methyl)cyclohexanol]",> 20 µM,,
O=C(C1CC1)N1CCC[C@H](Nc2nc(-c3c[nH]c4ncc(Cl)cc34)ncc2F)C1 [Compound 451],,5 to 20 µM,
"CC(C)(C)OC(=O)N1CCC[C@H](CNc2nc(-c3c[nH]c4ncc(N)cc34)ncc2F)C1 [Compound 114, (R)-tert-butyl 3-((2-(5-amino-1H-pyrrolo[2,3-b]pyridin-3-yl)-5-fluoropyrimidin-4-ylamino)methyl)piperidine-1-carboxylate]",> 20 µM,,
"CCCC(=O)N1CCC[C@H](CNc2nc(-c3c[nH]c4ncccc34)ncc2F)C1 [Compound 270, (R)-1-(3-((5-fluoro-2-(1H-pyrrolo[2,3-b]pyridin-3-yl)pyrimidin-4-ylamino)methyl)piperidin-1-yl)butan-1-one]",5 to 20 µM,,
"CCCC(=O)N[C@@H]1CCCC[C@@H]1Nc1nc(-c2c[nH]c3ncc(Cl)cc23)ncc1F (relative stereo) [Compound 334, N-[cis-2-[[2-(5-chloro-1H-pyrrolo[2,3-b]pyridin-3-yl)-5-fluoro-pyrimidin-4-yl]amino]cyclohexyl]butanamide]",,5 to 20 µM,
"CCCS(=O)(=O)N[C@@H]1CCCC[C@H]1Nc1nc(-c2c[nH]c3ncccc23)ncc1F [Compound 362, N-[(1R,2R)-2-[[5-fluoro-2-(1H-pyrrolo[2,3-b]pyridin-3-yl)pyrimidin-4-yl]amino]cyclohexyl]propane-1-sulfonamide]",,> 20 µM,
"O=C(c1ccccc1Oc1ccccc1)N1CCC[C@H](CNc2nc(-c3c[nH]c4ncc(Cl)cc34)ncc2F)C1 [Compound 150, (R)-(3-((2-(5-chloro-1H-pyrrolo[2,3-b]pyridin-3-yl)-5-fluoropyrimidin-4-ylamino)methyl)piperidin-1-yl)(2-phenoxyphenyl)methanone]",5 to 20 µM,,
"Cc1cccc(CN2CCC[C@@H](CNc3nc(-c4c[nH]c5ncc(Cl)cc45)ncc3F)C2)c1 [Compound 137, (S)-2-(5-chloro-1H-pyrrolo[2,3-b]pyridin-3-yl)-5-fluoro-N-((1-(3-methylbenzyl)piperidin-3-yl)methyl)pyrimidin-4-amine]",> 20 µM,,
"O=C(N[C@@H]1CCCC[C@@H]1Nc1nc(-c2c[nH]c3ncccc23)ncc1F)c1ccccc1 (relative stereo) [Compound 344, N-[cis-2-[[5-fluoro-2-(1H-pyrrolo[2,3-b]pyridin-3-yl)pyrimidin-4-yl]amino]cyclohexyl]benzamide]",,> 20 µM,
CC(C)OC(=O)N1CCC[C@H](Nc2nc(-c3c[nH]c4ncc(Cl)cc34)ncc2F)C1 [Compound 442],,5 to 20 µM,
"CC(C)NC(=O)N1CCOC(CNc2nc(-c3c[nH]c4ncc(Cl)cc34)ncc2F)C1 (stereo not drawn) [Compound 446, 2-((2-(5-chloro-1H-pyrrolo[2,3-b]pyridin-3-yl)-5-fluoropyrimidin-4-ylamino)methyl)-N-isopropylmorpholine-4-carboxamide]",,> 20 µM,
"OC1CCCCC1Nc1nc(-c2c[nH]c3ncc(Cl)cc23)ncc1F (stereo not drawn) [Compound 13, 2-(2-(5-chloro-1H-pyrrolo[2,3-b]pyridin-3-yl)-5-fluoropyrimidin-4-ylamino)cyclohexanol]",< 5 µM,,
"Cc1csc(NC(=O)N2CCC[C@H](CNc3nc(-c4c[nH]c5ncc(Cl)cc45)ncc3F)C2)c1 [Compound 130, (R)-3-((2-(5-chloro-1H-pyrrolo[2,3-b]pyridin-3-yl)-5-fluoropyrimidin-4-ylamino)methyl)-N-(4-methylthiophen-2-yl)piperidine-1-carboxamide]",< 5 µM,,
CC(C)OC(=O)N1CC[C@H](Nc2nc(-c3c[nH]c4ncc(Cl)cc34)ncc2F)C1 [Compound 477],,> 20 µM,
O=C1CCC(CNc2nc(-c3c[nH]c4ncc(Cl)cc34)ncc2F)CN1 (stereo not drawn) [Compound 378],,,IC50 [3]: > 20 µM
"CCCNC(=O)N[C@@H]1CCCC[C@@H]1Nc1nc(-c2c[nH]c3ncccc23)ncc1F (relative stereo) [Compound 347, 1-[cis-2-[[5-fluoro-2-(1H-pyrrolo[2,3-b]pyridin-3-yl)pyrimidin-4-yl]amino]cyclohexyl]-3-propyl-urea]",,> 20 µM,
